The text below walks through data of article doi:10.1101/2024.08.30.610474v2 (biorxiv, 2025).

The subject of this test is honeyeater HK3 (hexokinase 3). The experiment in a line: hexokinase activity assay kit. Format: biochemical, Phylidonyris novaehollandiae. Conditions: 25 °C; 200 nM enzyme; glucose 0.009375-1 mM; substrate inhibition.

Each structure is given as a SMILES string.

As for `OC[C@H]1OC(O)[C@H](O)[C@@H](O)[C@@H]1O` (stereo partly shown) [glucose], the Km (as a rule, the substrate concentration at which the rate is half of its maximum) was 65.9 µM.
